Test results published in patent publication US20250144067A1, “PERSONALIZED STARVATION THERAPY FOR CANCER” (Faeth Therapeutics, Inc., priority 2021, published 2025).
Where a name gives a salt, the structure may show the parent alone. Read-outs that look alike come from different tables or passages of the source.

Columns and labels:
[1] = test system: NCI-H292 lung cancer cells; assay: FDA drug screening, complete media vs cholesterol-free media without statin (TABLE 1); assay type: cell-based, human
[2] = test system: NCI-H292 lung cancer cells; assay: FDA drug screening, complete media vs cholesterol-free media with simvastatin (TABLE 2); assay type: cell-based, human
[3] = Complete minus Cholesterol-free, >0 enhanced anti-cancer activity, about 0 neutral, <0 antagonist
[4] = NCI-H292 cells, cholesterol-free media without statin, FDA drug library screen
[5] = NCI-H292 cells, complete media, FDA drug library screen
[6] = NCI-H292 cells, FDA drug library screen, cholesterol-free media with simvastatin 0.04 μM
[7] = NCI-H292 cells, FDA drug library screen, complete media
[8] = complete media vs cholesterol-free media + simvastatin (0.04 μM), >0 enhanced anti-cancer activity, about 0 neutral, <0 antagonist
[9] = NCI-H292 cells, cholesterol-free media without statin
[10] = NCI-H292 cells, FDA library drug in cholesterol-free media with simvastatin 0.04 μM
[11] = NCI-H292 cells, FDA library drug in complete media
[12] = complete vs cholesterol-free media, greater than 0 enhanced anti-cancer activity, about 0 neutral, below 0 antagonists
[13] = NCI-H292 cells, drug in cholesterol-free media with simvastatin 0.04 μM
[14] = NCI-H292 cells, drug in complete media
[15] = complete vs cholesterol-free media, >0 enhanced anti-cancer activity, about 0 neutral, <0 antagonist
[16] = NCI-H292 cells, cholesterol-free media with simvastatin 0.04 μM, cell growth value in FDA drug screen
[17] = NCI-H292 cells, complete media, cell growth value in FDA drug screen
[18] = complete media minus cholesterol-free media + simvastatin, >0 enhanced anti-cancer activity, about 0 neutral, <0 antagonist
[19] = Complete minus Cholesterol-free, greater than 0 enhanced anti-cancer activity, about 0 neutral, below 0 antagonist
[20] = NCI-H292 cells, FDA drug library screen, cholesterol-free media without statin
[21] = Complete minus Cholesterol-free, greater than 0 enhanced anti-cancer activity, about 0 neutral, below 0 antagonists
[22] = NCI-H292 cells in cholesterol-free media without statin
[23] = NCI-H292 cells in complete media

Tafenoquine (Succinate)
Difference [1, 3]: −0.06
Cholesterol-free [1, 4]: 1.252
Complete [1, 5]: 1.196
Cholesterol-free media + simvastatin (0.04 μM) [2, 6]: 1.136
Complete Media [2, 7]: 1.045
Difference [2, 8]: −0.09

NC(N)=O [Urea]
Difference [1, 3]: −0.20
Cholesterol-free [1, 9]: 1.334
Complete ([1]; NCI-H292 cells, complete media): 1.138
Cholesterol-free media + simvastatin (0.04 μM) [2, 10]: 1.928
Complete Media [2, 11]: 1.641
Difference [2, 8]: −0.29

C[C@H](C(=O)O)c1cccc(C(=O)c2ccccc2)c1 [S-(+)-Ketoprofen]
Cholesterol-free [1, 9]: 1.312
Complete ([1]; NCI-H292 cells, complete media): 0.984
Difference [1, 12]: −0.33
Cholesterol-free media + simvastatin (0.04 μM) [2, 13]: 0.9554
Complete Media [2, 14]: 0.7437
Difference [2, 8]: −0.21

C=C(CC)C(=O)c1ccc(OCC(=O)O)c(Cl)c1Cl [Ethacrynic acid]
Cholesterol-free [1, 4]: 0.8126
Complete [1, 5]: 0.956
Difference [1, 15]: 0.14
Cholesterol-free media + simvastatin (0.04 μM) [2, 16]: 1.155
Complete Media [2, 17]: 1.268
Difference [2, 18]: 0.11

CC(C)CN(C[C@@H](OP(=O)(O)O)[C@H](Cc1ccccc1)NC(=O)O[C@H]1CCOC1)S(=O)(=O)c1ccc(N)cc1 [Fosamprenavir (Calcium Salt)]
Difference [1, 19]: −0.11
Cholesterol-free [1, 20]: 1.061
Complete [1, 7]: 0.9495
Cholesterol-free media + simvastatin (0.04 μM) [2, 16]: 0.8511
Complete Media [2, 17]: 0.8779
Difference [2, 18]: 0.03

COCCCOc1ccnc(C[S+]([O-])c2nc3ccccc3[n-]2)c1C.[Na+] (stereo not drawn) [Rabeprazole (sodium)]
Difference [1, 21]: −0.70
Cholesterol-free [1, 22]: 1.634
Complete [1, 23]: 0.9326
Cholesterol-free media + simvastatin (0.04 μM) [2, 10]: 1.461
Complete Media [2, 11]: 0.9065
Difference [2, 8]: −0.55

Sultamicillin (tosylate)
Cholesterol-free [1, 9]: 1.337
Complete ([1]; NCI-H292 cells, complete media): 1.021
Difference [1, 12]: −0.32
Cholesterol-free media + simvastatin (0.04 μM) [2, 16]: 1.072
Complete Media [2, 17]: 1.191
Difference [2, 18]: 0.12

Oclacitinib (maleate)
Difference [1, 19]: −0.16
Cholesterol-free [1, 20]: 0.7098
Complete [1, 7]: 0.5476
Cholesterol-free media + simvastatin (0.04 μM) [2, 6]: 0.9891
Complete Media [2, 7]: 0.8445
Difference [2, 8]: −0.14

CCOC(=O)C1=C(C)NC(C)=C(C(=O)OCC)C1c1ccccc1/C=C/C(=O)OC(C)(C)C [Lacidipine]
Difference [1, 3]: −0.07
Cholesterol-free [1, 4]: 1.081
Complete [1, 5]: 1.013
Cholesterol-free media + simvastatin (0.04 μM) [2, 10]: 1.8
Complete Media [2, 11]: 0.96
Difference [2, 8]: −0.84

CN(C)CCOC(=O)C(c1ccccc1)C1(O)CCCC1 (stereo not drawn) [Cyclopentolate (hydrochloride)]
Difference [1, 21]: −0.56
Cholesterol-free [1, 22]: 1.412
Complete [1, 23]: 0.8527
Cholesterol-free media + simvastatin (0.04 μM) [2, 13]: 1.064
Complete Media [2, 14]: 0.8727
Difference [2, 8]: −0.19

COC(=O)C1=C(C)NC(C)=C(C(=O)OC)C1c1ccccc1[N+](=O)[O-] [Nifedipine]
Difference [1, 21]: −0.53
Cholesterol-free [1, 22]: 1.45
Complete [1, 23]: 0.9229
Cholesterol-free media + simvastatin (0.04 μM) [2, 6]: 1.819
Complete Media [2, 7]: 1.696
Difference [2, 8]: −0.12

CCCCCCCCCCCC[N+](C)(C)CCOc1ccccc1.[Br-] [Domiphen (bromide)]
Cholesterol-free [1]: −0.0357
Complete [1]: 0.01628
Difference [1]: 0.05
Cholesterol-free media + simvastatin (0.04 μM) [2]: 0.01614
Complete Media [2]: −0.0427
Difference [2]: −0.06

CC1(C)[C@@H](OC(=O)CCC(=O)O)CC[C@]2(C)[C@H]3C(=O)C=C4[C@@H]5C[C@@](C)(C(=O)O)CC[C@]5(C)CC[C@@]4(C)[C@]3(C)CC[C@@H]12 [Carbenoxolone (disodium)]
Difference [1, 3]: −0.05
Cholesterol-free [1, 4]: 1.149
Complete [1, 5]: 1.095
Cholesterol-free media + simvastatin (0.04 μM) ([2]; NCI-H292 cells, cholesterol-free media with simvastatin 0.04 μM, FDA drug library screen (TABLE 2)): 0.9745
Complete Media ([2]; NCI-H292 cells, complete media, FDA drug library screen (TABLE 2)): 0.9823
Difference ([2]; complete media minus cholesterol-free media + simvastatin (0.04 μM), >0 enhanced anti-cancer activity, about 0 neutral, <0 antagonist): 0.01

CC(C)(C)NCC(O)COc1ccccc1C1CCCC1 (single isomer, unassigned; (+)) [(+)-Penbutolol]
Cholesterol-free [1, 9]: 1.349
Complete ([1]; NCI-H292 cells, complete media): 1.014
Difference [1, 12]: −0.33
Cholesterol-free media + simvastatin (0.04 μM) [2, 13]: 1.153
Complete Media [2, 14]: 0.9518
Difference [2, 8]: −0.20

CCOC(=O)[C@H](C)C[C@@H](Cc1ccc(-c2ccccc2)cc1)NC(=O)CCC(=O)O [Sacubitril]
Difference [1, 3]: −0.30
Cholesterol-free [1, 9]: 1.009
Complete ([1]; NCI-H292 cells, complete media): 0.7049
Cholesterol-free media + simvastatin (0.04 μM) [2, 16]: 1.492
Complete Media [2, 17]: 1.622
Difference [2, 18]: 0.13

C[C@H](CCC(=O)NCCS(=O)(=O)O)[C@H]1CC[C@H]2[C@@H]3[C@H](O)C[C@@H]4C[C@H](O)CC[C@]4(C)[C@H]3CC[C@]12C [Taurochenodeoxycholic acid]
Difference ([1]; Complete minus Cholesterol-free, […]): −0.12
Cholesterol-free [1, 20]: 0.9676
Complete [1, 7]: 0.8469
Cholesterol-free media + simvastatin (0.04 μM) [2, 13]: 1.179
Complete Media [2, 14]: 1.003
Difference ([2]; complete media vs cholesterol-free media + simvastatin (0.04 μM), […]): −0.18

C[N+]12CCC(CC1)C(OC(=O)C(O)(c1ccccc1)c1ccccc1)C2.[Br-] (stereo not drawn) [Clidinium (bromide)]
Cholesterol-free [1]: 1.17
Complete [1]: 1.604
Difference [1]: 0.43
Cholesterol-free media + simvastatin (0.04 μM) [2]: 1.456
Complete Media [2]: 1.482
Difference [2]: 0.03

COc1ccccc1N1CCN(CC(O)COc2cccc3ccccc23)CC1 (stereo not drawn) [Naftopidil]
Difference [1, 21]: −0.98
Cholesterol-free [1, 22]: 1.94
Complete [1, 23]: 0.9592
Cholesterol-free media + simvastatin (0.04 μM) [2, 16]: 0.6892
Complete Media [2, 17]: 0.763
Difference [2, 18]: 0.07

COc1cccc(CCc2ccccc2OCC(CN(C)C)OC(=O)CCC(=O)O)c1 (stereo not drawn) [Sarpogrelate (hydrochloride)]
Cholesterol-free [1, 9]: 1.015
Complete ([1]; NCI-H292 cells, complete media): 0.6472
Difference [1, 12]: −0.37
Cholesterol-free media + simvastatin (0.04 μM) [2, 10]: 1.378
Complete Media [2, 11]: 1.089
Difference [2, 8]: −0.29

COc1c(OCCCN2CCOCC2)ccc2c1N=C(NC(=O)c1cnc(N)nc1)N1CCN=C21 [Copanlisib (dihydrochloride)]
Difference [1, 3]: 0.02
Cholesterol-free [1, 4]: 0.07316
Complete [1, 5]: 0.09563
Cholesterol-free media + simvastatin (0.04 μM) [2, 16]: 0.2902
Complete Media [2, 17]: 0.3694
Difference [2, 18]: 0.08

CCOC(=O)[C@H](CCc1ccccc1)N[C@H]1CCc2ccccc2N(CC(=O)O)C1=O [Benazepril (hydrochloride)]
Cholesterol-free [1, 9]: 1.314
Complete ([1]; NCI-H292 cells, complete media): 0.8774
Difference [1, 12]: −0.44
Cholesterol-free media + simvastatin (0.04 μM) [2, 6]: 1.077
Complete Media [2, 7]: 0.9854
Difference [2, 8]: −0.09

CS(=O)(=O)c1ccc([C@@H](O)[C@@H](CO)NC(=O)C(Cl)Cl)cc1 [Thiamphenicol]
Cholesterol-free [1, 4]: 0.8085
Complete [1, 5]: 0.9105
Difference [1, 15]: 0.10
Cholesterol-free media + simvastatin (0.04 μM) [2, 6]: 0.911
Complete Media [2, 7]: 0.7958
Difference [2, 8]: −0.12
